Measurements taken from publication PMC7181131, “N-Pyrazinoyl Substituted Amino Acids as Potential Antimycobacterial Agents—the Synthesis and Biological Evaluation of Enantiomers” (Molecules, 2020).
pIC50: −log10 of the molar value. ≈ marks a conversion by molar mass, not a printed value. Read-outs that look alike come from different tables or passages of the source.

What was measured:
[1] = Solubility in the cultivation medium of the antibacterial and antifungal screening; conditions: for solubility in the cultivation medium: antibacterial testing medium; for solubility in the medium: antifungal testing medium
[2] = test system: Mycobacterium aurum DSM 43999 (ATCC 23366); test: Microplate Alamar Blue Assay (MABA) microdilution, M. aurum; assay type: cell-based
[3] = test system: Mtb H37Ra ITM-M006710 (ATCC 9431); test: Microplate Alamar Blue Assay (MABA) microdilution, Mtb H37Ra; assay type: cell-based, Mycobacterium tuberculosis; conditions: for MIC: Mycobacterium tuberculosis
[4] = test system: M. smegmatis DSM 43465 (ATCC 607); test: Microplate Alamar Blue Assay (MABA) microdilution, M. smegmatis; assay type: cell-based, Mycobacterium smegmatis
[5] = test system: HepG2 cell line; test: HepG2 cytotoxicity, CellTiter 96 (MTS) assay; assay type: cell-based, human; conditions: for pIC50: Homo sapiens, read-out: HepG2 IC50
[6] = test system: Candida parapsilosis CCM 8260 (ATCC 22019); test: Antifungal microdilution broth method, CP; assay type: cell-based; conditions: Lodderomyces parapsilosis, 24 h, read-out: MIC CP
[7] = test system: Candida krusei CCM 8271 (ATCC 6258); test: Antifungal microdilution broth method, CK; assay type: cell-based; conditions: Pichia kudriavzevii, 24 h, read-out: MIC CK
[8] = test system: Aspergillus fumigatus ATCC 204305; test: Antifungal microdilution broth method, AF; assay type: cell-based; conditions: ATCC204305, 48 h, read-out: MIC AF
[9] = test system: Aspergillus flavus CCM 8363; test: Antifungal microdilution broth method, AFla; assay type: cell-based; conditions: CCM8363, read after 48 h (filamentous fungi), read-out: MIC AFla
[10] = test system: Klebsiella pneumoniae CCM 4415 (ATCC 10031); test: Antibacterial microdilution broth method, KP; conditions: read after 24 h of incubation
[11] = test system: Lichtheimia corymbifera CCM 8077; test: Antifungal microdilution broth method, LC; assay type: cell-based; conditions: CCM8077, 48 h, read-out: MIC LC
[12] = test system: Staphylococcus epidermidis CCM 4418 (ATCC 12228); test: Antibacterial microdilution broth method, SE; assay type: cell-based; conditions: 24 h, read-out: MIC SE
[13] = test system: Candida albicans CCM 8320 (ATCC 24433); test: Antifungal microdilution broth method, CA; assay type: cell-based; conditions: 24 h, read-out: MIC CA
[14] = test system: some G- bacteria; test: Antibacterial microdilution broth method, strains not given; assay type: cell-based; conditions: read-out: MIC against some G- bacteria
[15] = test system: Trichophyton interdigitale CCM 8377 (ATCC 9533); test: Antifungal microdilution broth method, TI; assay type: cell-based; conditions: 48 h, read-out: MIC TI
[16] = test system: Candida tropicalis CCM 8264 (ATCC 750); test: Antifungal microdilution broth method, CT; assay type: cell-based; conditions: 24 h, read-out: MIC CT
[17] = test system: M. avium ssp. avium CNCTC My 80/72 (ATCC 15769); test: Antimycobacterial pre-screening, microdilution broth, M. avium; assay type: cell-based; conditions: Mycobacterium avium, ATCC15769; Middlebrook 7H9 broth of declared pH 6.6
[18] = test system: Mycobacterium tuberculosis H37Rv CNCTC My 331/88 (ATCC 27294); parameters: method as in doi:10.3184/030823407×200001; conditions: study by Pinheiro et al. ref 32; cited from earlier work
[19] = test system: Mycobacterium tuberculosis H37Rv CNCTC My 331/88 (ATCC 27294); test: Antimycobacterial pre-screening, microdilution broth, Mtb H37Rv; assay type: cell-based; conditions: Middlebrook 7H9 broth of declared pH 6.6
[20] = test system: M. kansasii CNCTC My 235/80 (ATCC 12478); test: Antimycobacterial pre-screening, microdilution broth, M. kansasii; assay type: cell-based; conditions: Mycobacterium kansasii, ATCC12478; Middlebrook 7H9 broth of declared pH 6.6
[21] = test system: HepG2 cell line; parameters: method as in PMID 23357778; conditions: converted to µM based on the literature value 1184.3 ± 120.2 µg/mL ref 62; cited from earlier work
[22] = Mycolicibacterium aurum, pH 6; read-out: MIC M. aurum
[23] = Mycolicibacterium aurum, pH 6.6, read-out: MIC M. aurum
[24] = pH 6.6, read-out: MIC Mtb H37Ra
[25] = pH 6, calculated from µg/mL, read-out: MIC Mtb H37Ra
[26] = Mycolicibacterium smegmatis, pH 6; read-out: MIC M. smegmatis
[27] = Mycolicibacterium smegmatis, pH 6.6, read-out: MIC M. smegmatis
[28] = Mycolicibacterium aurum, pH 6.6; read-out: MIC M. aurum
[29] = Mycolicibacterium smegmatis, pH 6.6; read-out: MIC M. smegmatis
[30] = Mycolicibacterium aurum, pH 6, read-out: MIC M. aurum µg/mL
[31] = Mycolicibacterium smegmatis, pH 6, read-out: MIC M. smegmatis µg/mL

SMILES	solubility in the cultivation medium [1]	solubility in the medium [1]	MIC [2, 22] [µg/mL]	MIC [2, 23] [µg/mL]	MIC ([3]; pH 6) [µg/mL]	MIC ([3]; pH 6, read-out: MIC Mtb H37Ra) [µg/mL]	MIC [3, 24] [µg/mL]	MIC [3, 25] [µM]	MIC [4, 26] [µg/mL]	MIC [4, 27] [µg/mL]	MIC [2, 28] [µg/mL]	MIC [4, 29] [µg/mL]	MIC [6] [µM]	MIC [7] [µM]	MIC [8] [µM]	MIC [2, 30] [µg/mL]	MIC [9] [µM]	MIC [4, 31] [µg/mL]	MIC [11] [µM]	MIC [12] [µM]	further results
COC(=O)C[C@@H](NC(=O)c1cnccn1)C(=O)OC [PC-D-Asp-diMe, dimethyl (pyrazine-2-carbonyl)-D-aspartate]	insoluble	insoluble	≥ 125	≥ 125	≥ 125	≥ 125	≥ 125	≥ 468	≥ 125	≥ 125	–	–	–	–	–	–	–	–	–	–	–
CC[C@@H](C)[C@@H](NC(=O)c1cnccn1)C(=O)OC [PC-D-Ile-Me, methyl (pyrazine-2-carbonyl)-D-isoleucinate]	insoluble	insoluble	250 (≈ 995 µM)	–	250	250	≥ 500	995	250 (≈ 995 µM)	–	≥ 500	≥ 500	–	–	–	–	–	–	–	–	–
CCOC(=O)[C@H](C)NC(=O)c1cnccn1 [PC-L-Ala-Et, ethyl (pyrazine-2-carbonyl)-L-alaninate]	–	–	–	≥ 500	3.91	3.91	≥ 500	17.5	–	≥ 500	–	–	> 500	> 500	> 500	≥ 125	> 500	≥ 125	> 500	250 (≈ 55.8 µg/mL)	HepG2 IC50 ([5]; 24 h incubation, CellTiter 96): above the tested range; pIC50 ([5]; HepG2, 24 h incubation, CellTiter 96): < 3.00; MIC KP [10]: > 500 µM; times lower MIC of the ethyl ester compared to the free acid ([3]; Mtb H37Ra, pH 6, PC-L-Ala-Et vs PC-L-Ala): at least 64 times; MIC ([3]; pH 6, Table 4, read-out: Mtb pH 6 MIC): 18 µM; MIC [13]: > 500 µM; MIC [14]: 125 µM (≈ 27.9 µg/mL); MIC [15]: 500 µM (≈ 112 µg/mL); MIC [16]: > 500 µM
CC[C@H](C)[C@H](NC(=O)c1cnccn1)C(=O)OC [PC-L-Ile-Me, methyl (pyrazine-2-carbonyl)-L-isoleucinate]	insoluble	insoluble	≥ 500	–	250	250	≥ 500	995	≥ 500	–	≥ 500	≥ 500	–	–	–	–	–	–	–	–	–
C=C(NC(=O)c1cnccn1)C(=O)OC [PC-MeAcr, methyl 2-(pyrazine-2-carboxamido)acrylate]	–	–	–	62.5 (≈ 302 µM)	62.5	62.5	15.6	302	–	31.2 (≈ 151 µM)	–	–	> 125	> 125	> 125	62.5 (≈ 302 µM)	> 125	≥ 125	> 125	> 125	pIC50 ([5]; HepG2, 24 h): < 3.30; MIC [17]: > 100 µg/mL; MIC ([3]; pH 6, read-out: Mtb pH 6 MIC): 302 µM; MIC on Mtb H37Rv [18]: 50 µg/mL (≈ 241 µM); MIC [19]: 50 µg/mL (≈ 241 µM); MIC [13]: > 125 µM; MIC [15]: > 125 µM; MIC [16]: > 125 µM; MIC [20]: 100 µg/mL (≈ 483 µM)
NC(=O)c1cnccn1 [PZA, pyrazinamide, reference compound]	–	–	250 (≈ 2030 µM)	–	–	< 3.91	≥ 500	< 31.8	≥ 500	–	≥ 500	≥ 500	–	–	–	–	–	–	–	–	IC50 [21]: 9620 µM; MIC ([3]; pH 6, read-out: Mtb pH 6 MIC): 31.8 µM
